{"source": "patent EP4796125A1", "about": "“TREATMENT OF PATIENT WITH NEGATIVE P53 GENE MUTATION, POSITIVE KRAS GENE MUTATION AND POSITIVE BRCA MUTATION” (Ascentawits Pharmaceuticals, Ltd., priority 2023, dated 2025)", "test_system": "hepatocellular carcinoma", "assay": "Phase II clinical trial of AST-3424 conducted in China (CTR20191399)", "assay_type": "in vivo, human", "description": "The clinical trial registration number is CTR20191399.\n• 1. Male or female, aged ≥18 years. • 2. Pathohistologically confirmed advanced HCC that cannot be controlled by surgical resection or local therapy. • 3. Previously received standard systemic therapy, including but not limited to, Sorafenib and/or Oxaliplatin-containing systemic chemotherapy, Lenvatinib, Regorafenib, and/or Nivolumab, experienced disease progression, toxicity intolerance, or refusal to continue treatment with these drugs. • 4. At least one measurable lesion according to RECIST 1.1 criteria. Previously irradiated lesions cannot be considered as measurable lesions unless clear radiographic progression is observed after radiotherapy. • 5. […] Eastern Cooperative Oncology Group (ECOG) performance status score of 0 or 1. • 7. Life expectancy ≥ 12 weeks. • 8. With or without HBV or HCV infection. • a. Subjects with HBV infection must have HBV-DNA level less than 2,000 IU/ml, and receive antiviral therapy with entecavir, tenofovir disoproxil fumarate, or tenofovir alafenamide fumarate according to the national guidelines for the prevention and treatment of chronic hepatitis B. The therapy must be maintained during the study and continue for 6 months after the last dose. • b. Subjects with HCV infection (with detectable HCV-RNA or anti-HCV antibodies) may receive treatment according to medical practice. • 9. Child-Pugh score ≤ 6 points. • 10. No history of hepatic encephalopathy. • 11. Before starting to use the study drug, all toxicities from previous anticancer therapies (except alopecia, fatigue, or peripheral neuropathy) must have recovered to Grade 1 or baseline levels (NCI CTCAE Version 5). • 12. Laboratory tests must meet the following criteria. During 14 days before laboratory tests at screening, indicators cannot be corrected by blood transfusion, hematopoietic stimulating factor or albumin infusion is allowed to meet the inclusion criteria. • a. Hemoglobin ≥ 90 g/L; • b. Platelet count ≥ 80 × 10^9/L; • c. Absolute neutrophil count (ANC) ≥ 1.5 × 10^9/L; • d. Serum total bilirubin ≤ 3 mg/dL; • e. ALT and AST ≤ 5.0 × ULN; • f. International normalized ratio (INR) ≤ 2.3 or prothrombin time prolongation ≤ 6 seconds; • g. Albumin ≥ 29 g/L; • h. Creatinine clearance > 50 mL/min as measured according to the Cockcroft-Gault equation. • 13. No history of alcohol abuse, drug addiction or substance abuse within the past year. • 14. Fertile female patients must be in non-lactating and have a negative pregnancy test result within 5 days before the initiation of treatment (positive urine pregnancy test result needs to be confirmed by a serum pregnancy test). • 15. Fertile female and male subjects must agree to use effective contraceptive measures (e.g. surgical sterilization or condom or diaphragm contraceptive measures combined with spermicidal gel or intrauterine contraceptive device [IUD], etc.) with their partners from the start of study participation until 6 months after the last dose. • 16. Voluntary participation in this study, fully understanding of relevant risks, good compliance, and signing the informed consent form. Subjects may also sign a consent form for future biomedical research (FBR). However, subjects who would not participate in FBR may still participate in the main trial.\n• 1. Untreated active central nervous system (CNS) metastases or leptomeningeal disease. Subjects with adequately treated CNS metastases may participate if they are confirmed to be stable for at least 4 weeks by clinical examination and brain imaging (MRI or CT) during screening. • 2. History of other malignant tumors within 2 years, except for adequately treated basal cell carcinoma, carcinoma in situ at other sites, or other tumors of which the natural medical history and the treatment will not interfere with the safety or efficacy assessment of the current study. • 3. Major surgery (other than diagnostic surgery) performed within 4 weeks prior to the first dose. • 4. […]", "key": {"[1]": {"settings": "6 cases positive (+) for BRCA gene mutation, as of March 11, 2024"}, "[2]": {"settings": "8 cases negative (-) for BRCA gene mutation, as of March 11, 2024"}, "[3]": {"settings": "8 cases positive (+) for p53 gene mutation which may affect protein expression (MUT), as of March 11, 2024"}, "[4]": {"settings": "9 cases negative (-) for p53 gene mutation (WT), as of March 11, 2024"}, "[5]": {"settings": "18 liver cancer subjects who completed the clinical efficacy evaluation"}, "[6]": {"settings": "30 enrolled subjects, as of March 11, 2024"}, "[7]": {"settings": "subgroup of 5 cases negative (-) for BRCA gene mutation, Table 4 data"}, "[8]": {"settings": "subgroup of 5 cases negative (-) for p53 gene mutation or deficiency, Table 4 data"}, "[9]": {"settings": "subgroup of 5 cases positive (+) for BRCA gene mutation, Table 4 data"}, "[10]": {"settings": "subgroup of 5 cases positive (+) for p53 gene mutation or deficiency, Table 4 data"}}}
{"molecule": "C[C@H](OP(=O)(N1CC1)N1CC1)c1ccc([N+](=O)[O-])c(Oc2cccc(C(=O)N(C)C)c2)c1", "note": "[AST-3424]", "values": [{"measurement": "DCR", "setting": "[1]", "value": 66.7, "unit": "%"}, {"measurement": "ORR", "setting": "[1]", "value": 16.7, "unit": "%"}, {"measurement": "longest OS", "setting": "[1]", "value": "more than 13.8 months"}, {"measurement": "longest PFS", "setting": "[1]", "value": "more than 11.5 months"}, {"measurement": "mean OS", "setting": "[1]", "value": "more than 9.5 months"}, {"measurement": "mean PFS", "setting": "[1]", "value": 4.5, "unit": "months"}, {"measurement": "DCR", "setting": "[2]", "value": 50, "unit": "%"}, {"measurement": "ORR", "setting": "[2]", "value": 0, "unit": "%"}, {"measurement": "longest OS", "setting": "[2]", "value": "more than 17.6 months"}, {"measurement": "longest PFS", "setting": "[2]", "value": 2.9, "unit": "months"}, {"measurement": "mean OS", "setting": "[2]", "value": "more than 9.4 months"}, {"measurement": "mean PFS", "setting": "[2]", "value": 1.9, "unit": "months"}, {"measurement": "DCR", "setting": "[3]", "value": 25, "unit": "%"}, {"measurement": "ORR", "setting": "[3]", "value": 0, "unit": "%"}, {"measurement": "longest OS", "setting": "[3]", "value": "> 14.0", "unit": "months"}, {"measurement": "longest PFS", "setting": "[3]", "value": 1.6, "unit": "months"}, {"measurement": "mean OS", "setting": "[3]", "value": "more than 9.3 months"}, {"measurement": "mean PFS", "setting": "[3]", "value": 1.4, "unit": "months"}, {"measurement": "DCR", "setting": "[4]", "value": 77.8, "unit": "%"}, {"measurement": "ORR", "setting": "[4]", "value": 22.2, "unit": "%"}, {"measurement": "longest OS", "setting": "[4]", "value": "> 13.8", "unit": "months"}, {"measurement": "longest PFS", "setting": "[4]", "value": "more than 11.5 months"}, {"measurement": "mean OS", "setting": "[4]", "value": "more than 7.7 months"}, {"measurement": "mean PFS", "setting": "[4]", "value": "more than 4.1 months"}, {"measurement": "DCR", "setting": "[5]", "value": 61.1, "unit": "%"}, {"measurement": "ORR", "setting": "[5]", "value": 5.6, "unit": "%"}, {"measurement": "longest OS", "setting": "[6]", "value": "> 17.6", "unit": "months"}, {"measurement": "longest PFS", "setting": "[6]", "value": "> 11.5", "unit": "months"}, {"measurement": "DCR", "setting": "[7]", "value": 60, "unit": "%"}, {"measurement": "ORR", "setting": "[7]", "value": 0, "unit": "%"}, {"measurement": "mean PFS", "setting": "[7]", "value": 1.976, "unit": "months"}, {"measurement": "DCR", "setting": "[8]", "value": 80, "unit": "%"}, {"measurement": "ORR", "setting": "[8]", "value": 20, "unit": "%"}, {"measurement": "mean PFS", "setting": "[8]", "value": 4.1, "unit": "months"}, {"measurement": "DCR", "setting": "[9]", "value": 80, "unit": "%"}, {"measurement": "ORR", "setting": "[9]", "value": 20, "unit": "%"}, {"measurement": "mean PFS", "setting": "[9]", "value": 3.82, "unit": "months"}, {"measurement": "DCR", "setting": "[10]", "value": 60, "unit": "%"}, {"measurement": "ORR", "setting": "[10]", "value": 0, "unit": "%"}, {"measurement": "mean PFS", "setting": "[10]", "value": 1.756, "unit": "months"}]}
